Measurements taken from PubChem BioAssay AID248 (DTP/NCI, 2004).
Where “and” joins values, the source holds several entries; their conditions need not be identical. Identical values can stand only once. Inconclusive results and toxic doses are left out.

Tested on: L1210 leukemia ip in BDF1 mice, survival T/C
Assay: NCI In Vivo Anticancer Drug Screen. Data for tumor model L1210 Leukemia (intraperitoneal) in B6D2F1 (BDF1) mice
Conditions: higher = longer survival
How it was run: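 In this screen, tumor-bearing mice given compound are compared to those given vehicle, and their survival values are reported as a treated-to-control quotient.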

[1] = endpoint: mean survival time, dose: 40.0 mg/kg/injection, schedule: Q01DX001 (ip), vehicle: carboxymethylcellulose (CMC)
[2] = endpoint: mean survival time, dose: 25.0 mg/kg/injection, schedule: Q01DX009 (ip), vehicle: saline
[3] = endpoint: mean survival time, dose: 50.0 mg/kg/injection, schedule: Q01DX009 (ip), vehicle: saline
[4] = endpoint: mean survival time, dose: 100.0 mg/kg/injection, schedule: Q01DX009 (ip), vehicle: saline
[5] = endpoint: mean survival time, dose: 100.0 mg/kg/injection, schedule: Q04DX003 (ip), vehicle: saline
[6] = endpoint: mean survival time, dose: 200.0 mg/kg/injection, schedule: Q01DX009 (ip), vehicle: saline
[7] = endpoint: mean survival time, dose: 200.0 mg/kg/injection, schedule: Q04DX003 (ip), vehicle: saline
[8] = endpoint: mean survival time, dose: 400.0 mg/kg/injection, schedule: Q01DX009 (ip), vehicle: saline
[9] = endpoint: mean survival time, dose: 400.0 mg/kg/injection, schedule: Q04DX003 (ip), vehicle: saline
[10] = endpoint: mean survival time, dose: 100.0 mg/kg/injection, schedule: Q01DX001 (ip), vehicle: saline
[11] = endpoint: mean survival time, dose: 200.0 mg/kg/injection, schedule: Q01DX001 (ip), vehicle: saline
[12] = endpoint: mean survival time, dose: 400.0 mg/kg/injection, schedule: Q01DX001 (ip), vehicle: saline
[13] = endpoint: mean survival time, dose: 100.0 mg/kg/injection, schedule: Q01DX009 (ip), vehicle: saline with Tween-80

## COc1ccc(Cl)cc1NC(=O)N(CCCl)N=O
endpoint: mean survival time, dose: 0.1 mg/kg/injection, schedule: Q01DX009 (ip), vehicle: carboxymethylcellulose (CMC)
  T/C: 103 % of control
endpoint: mean survival time, dose: 1.0 mg/kg/injection, schedule: Q01DX001 (ip), vehicle: carboxymethylcellulose (CMC)
  T/C: 122 % of control
endpoint: mean survival time, dose: 1.0 mg/kg/injection, schedule: Q01DX009 (ip), vehicle: Klucel (hydroxypropylcellulose) (HPC)
  T/C: 105 % of control
endpoint: mean survival time, dose: 2.0 mg/kg/injection, schedule: Q01DX001 (ip), vehicle: carboxymethylcellulose (CMC)
  T/C: 117 % of control
endpoint: mean survival time, dose: 2.12 mg/kg/injection, schedule: Q01DX001 (ip), vehicle: Klucel (hydroxypropylcellulose) (HPC)
  T/C: 117 % of control
endpoint: mean survival time, dose: 4.25 mg/kg/injection, schedule: Q01DX001 (ip), vehicle: Klucel (hydroxypropylcellulose) (HPC)
  T/C: 119 % of control
endpoint: mean survival time, dose: 5.0 mg/kg/injection, schedule: Q01DX009 (ip), vehicle: Klucel (hydroxypropylcellulose) (HPC)
  T/C: 105 % of control
endpoint: mean survival time, dose: 6.0 mg/kg/injection, schedule: Q01DX009 (ip), vehicle: carboxymethylcellulose (CMC)
  T/C: 153 % of control
endpoint: mean survival time, dose: 8.8 mg/kg/injection, schedule: Q01DX009 (ip), vehicle: carboxymethylcellulose (CMC)
  T/C: 166 % of control
endpoint: mean survival time, dose: 15.0 mg/kg/injection, schedule: Q01DX001 (ip), vehicle: carboxymethylcellulose (CMC)
  T/C: 151 % of control
endpoint: mean survival time, dose: 17.0 mg/kg/injection, schedule: Q01DX001 (ip), vehicle: Klucel (hydroxypropylcellulose) (HPC)
  T/C: 158 % of control
endpoint: mean survival time, dose: 17.0 mg/kg/injection, schedule: Q01DX009 (ip), vehicle: Klucel (hydroxypropylcellulose) (HPC)
  T/C: 174 % of control
endpoint: mean survival time, dose: 20.0 mg/kg/injection, schedule: Q01DX009 (ip), vehicle: carboxymethylcellulose (CMC)
  T/C: 100 % of control
endpoint: mean survival time, dose: 26.0 mg/kg/injection, schedule: Q01DX001 (ip), vehicle: carboxymethylcellulose (CMC)
  T/C: 151 % of control and 196 % of control
endpoint: mean survival time, dose: 26.0 mg/kg/injection, schedule: Q01DX009 (ip), vehicle: Klucel (hydroxypropylcellulose) (HPC)
  T/C: 87 % of control
endpoint: mean survival time, dose: 30.0 mg/kg/injection, schedule: Q01DX001 (ip), vehicle: carboxymethylcellulose (CMC)
  T/C: 151 % of control
endpoint: mean survival time, dose: 30.0 mg/kg/injection, schedule: Q01DX009 (ip), vehicle: carboxymethylcellulose (CMC)
  T/C: 98 % of control
[1]
  T/C: 93 % of control
endpoint: mean survival time, dose: 75.0 mg/kg/injection, schedule: Q01DX001 (ip), vehicle: carboxymethylcellulose (CMC)
  T/C: 95 % of control

## O=C(COc1ccc(Cl)cc1)NC(CO)(CO)CO
endpoint: mean survival time, dose: 100.0 mg/kg/injection, schedule: Q04DX002 (ip), vehicle: saline with Tween-80
  T/C: 103 % of control
endpoint: mean survival time, dose: 200.0 mg/kg/injection, schedule: Q04DX002 (ip), vehicle: saline with Tween-80
  T/C: 103 % of control
endpoint: mean survival time, dose: 400.0 mg/kg/injection, schedule: Q04DX002 (ip), vehicle: saline with Tween-80
  T/C: 103 % of control

## NC(CCCCNC(c1ccccc1)(c1ccccc1)c1ccccc1)C(=O)O (configuration not stated)
endpoint: mean survival time, dose: 12.5 mg/kg/injection, schedule: Q01DX009 (ip), vehicle: saline
  T/C: 102 % of control
[2]
  T/C: 101 % of control
[3]
  T/C: 101 % of control
[4]
  T/C: 97 % of control

## O=C(CBr)OCCCS(=O)(=O)O
[4]
  T/C: 96 % of control
[5]
  T/C: 105 % of control
[6]
  T/C: 113 % of control
[7]
  T/C: 104 % of control
[8]
  T/C: 102 % of control
[9]
  T/C: 93 % of control

## O=c1[nH]c(-c2ccccc2)nc(CN2CCCCC2)c1O
endpoint: mean survival time, dose: 50.0 mg/kg/injection, schedule: Q01DX001 (ip), vehicle: carboxymethylcellulose (CMC)
  T/C: 101 % of control
endpoint: mean survival time, dose: 100.0 mg/kg/injection, schedule: Q01DX001 (ip), vehicle: carboxymethylcellulose (CMC)
  T/C: 101 % of control
endpoint: mean survival time, dose: 200.0 mg/kg/injection, schedule: Q01DX001 (ip), vehicle: carboxymethylcellulose (CMC)
  T/C: 98 % of control
endpoint: mean survival time, dose: 400.0 mg/kg/injection, schedule: Q01DX001 (ip), vehicle: carboxymethylcellulose (CMC)
  T/C: 95 % of control

## CCC(N)C(=O)O (configuration not stated)
[10]
  T/C: 108 % of control
[11]
  T/C: 102 % of control
[12]
  T/C: 94 % of control

## COc1ccc(NC(=O)O/N=C2\CN(S(=O)(=O)c3ccc(C)cc3)CCc3ccccc32)cc1
endpoint: mean survival time, dose: 100.0 mg/kg/injection, schedule: Q04DX003 (ip), vehicle: Klucel (hydroxypropylcellulose) (HPC)
  T/C: 91 % of control
endpoint: mean survival time, dose: 200.0 mg/kg/injection, schedule: Q04DX003 (ip), vehicle: Klucel (hydroxypropylcellulose) (HPC)
  T/C: 94 % of control
endpoint: mean survival time, dose: 400.0 mg/kg/injection, schedule: Q04DX003 (ip), vehicle: Klucel (hydroxypropylcellulose) (HPC)
  T/C: 96 % of control

## O=C1c2ccccc2C(=O)N1c1ccc(Br)cc1
endpoint: mean survival time, dose: 100.0 mg/kg/injection, schedule: Q01DX001 (ip), vehicle: Klucel (hydroxypropylcellulose) (HPC)
  T/C: 101 % of control
endpoint: mean survival time, dose: 200.0 mg/kg/injection, schedule: Q01DX001 (ip), vehicle: Klucel (hydroxypropylcellulose) (HPC)
  T/C: 104 % of control
endpoint: mean survival time, dose: 400.0 mg/kg/injection, schedule: Q01DX001 (ip), vehicle: Klucel (hydroxypropylcellulose) (HPC)
  T/C: 104 % of control

## O=CC(=O)c1ccccc1
endpoint: mean survival time, dose: 25.0 mg/kg/injection, schedule: Q01DX009 (ip), vehicle: saline with Tween-80
  T/C: 100 % of control
[2]
  T/C: 101 % of control
endpoint: mean survival time, dose: 50.0 mg/kg/injection, schedule: Q01DX009 (ip), vehicle: saline with Tween-80
  T/C: 105 % of control
[3]
  T/C: 104 % of control
endpoint: mean survival time, dose: 75.0 mg/kg/injection, schedule: Q01DX009 (ip), vehicle: saline with Tween-80
  T/C: 98 % of control
[13]
  T/C: 107 % of control

## [O]=[Sn]1[O][Bi]([O][Sn](=[O])[O][Bi]2[O][Sn](=[O])[O]2)[O]1
[4]
  T/C: 94 % of control
[6]
  T/C: 94 % of control
[8]
  T/C: 92 % of control

## CCOC(=O)/C(C)=C\C=C(\C)CCC=C(C)C
endpoint: mean survival time, dose: 100.0 mg/kg/injection, schedule: Q01DX009 (ip), vehicle: Klucel (hydroxypropylcellulose) (HPC)
  T/C: 104 % of control
endpoint: mean survival time, dose: 200.0 mg/kg/injection, schedule: Q01DX009 (ip), vehicle: Klucel (hydroxypropylcellulose) (HPC)
  T/C: 102 % of control
endpoint: mean survival time, dose: 400.0 mg/kg/injection, schedule: Q01DX009 (ip), vehicle: Klucel (hydroxypropylcellulose) (HPC)
  T/C: 104 % of control

## F[Si](C1CCCCC1)(C1CCCCC1)C1CCCCC1
[13]
  T/C: 92 % of control
endpoint: mean survival time, dose: 200.0 mg/kg/injection, schedule: Q01DX009 (ip), vehicle: saline with Tween-80
  T/C: 91 % of control
endpoint: mean survival time, dose: 400.0 mg/kg/injection, schedule: Q01DX009 (ip), vehicle: saline with Tween-80
  T/C: 89 % of control

## CCn1c(N)cc(=O)[nH]c1=S
endpoint: mean survival time, dose: 50.0 mg/kg/injection, schedule: Q01DX001 (ip), vehicle: saline
  T/C: 96 % of control
[10]
  T/C: 108 % of control
[11]
  T/C: 102 % of control
[12]
  T/C: 106 % of control

## CN1CCN(CCCN2c3ccccc3Sc3ccc(Cl)cc32)CC1
endpoint: mean survival time, dose: 100.0 mg/kg/injection, schedule: Q04DX002 (ip), vehicle: Klucel (hydroxypropylcellulose) (HPC)
  T/C: 104 % of control
endpoint: mean survival time, dose: 200.0 mg/kg/injection, schedule: Q04DX002 (ip), vehicle: Klucel (hydroxypropylcellulose) (HPC)
  T/C: 90 % of control
endpoint: median survival time, dose: 6.25 mg/kg/injection, schedule: Q06HX032 (oral), vehicle: Klucel (hydroxypropylcellulose) (HPC)
  T/C: 97 % of control
endpoint: median survival time, dose: 6.25 mg/kg/injection, schedule: Q06HX044 (oral), vehicle: Klucel (hydroxypropylcellulose) (HPC)
  T/C: 91 % of control
endpoint: median survival time, dose: 12.5 mg/kg/injection, schedule: Q06HX032 (oral), vehicle: Klucel (hydroxypropylcellulose) (HPC)
  T/C: 98 % of control and 107 % of control
endpoint: median survival time, dose: 12.5 mg/kg/injection, schedule: Q06HX044 (oral), vehicle: Klucel (hydroxypropylcellulose) (HPC)
  T/C: 95 % of control and 96 % of control
endpoint: median survival time, dose: 25.0 mg/kg/injection, schedule: Q06HX032 (oral), vehicle: Klucel (hydroxypropylcellulose) (HPC)
  T/C: 97 % of control and 116 % of control
endpoint: median survival time, dose: 25.0 mg/kg/injection, schedule: Q06HX044 (oral), vehicle: Klucel (hydroxypropylcellulose) (HPC)
  T/C: 101 % of control and 76 % of control
endpoint: median survival time, dose: 50.0 mg/kg/injection, schedule: Q06HX032 (oral), vehicle: Klucel (hydroxypropylcellulose) (HPC)
  T/C: 57 % of control and 69 % of control
endpoint: median survival time, dose: 50.0 mg/kg/injection, schedule: Q06HX044 (oral), vehicle: Klucel (hydroxypropylcellulose) (HPC)
  T/C: 93 % of control and 35 % of control

## CSc1ncc(Br)c(Cl)n1
endpoint: mean survival time, dose: 5.0 mg/kg/injection, schedule: Q01DX001 (ip), vehicle: carboxymethylcellulose (CMC)
  T/C: 95 % of control
endpoint: mean survival time, dose: 10.0 mg/kg/injection, schedule: Q01DX001 (ip), vehicle: carboxymethylcellulose (CMC)
  T/C: 98 % of control
endpoint: mean survival time, dose: 20.0 mg/kg/injection, schedule: Q01DX001 (ip), vehicle: carboxymethylcellulose (CMC)
  T/C: 95 % of control
[1]
  T/C: 93 % of control
endpoint: mean survival time, dose: 80.0 mg/kg/injection, schedule: Q01DX001 (ip), vehicle: carboxymethylcellulose (CMC)
  T/C: 93 % of control

## CCOC(=O)C1CCCNC1=O (configuration not stated)
[5]
  T/C: 105 % of control
[7]
  T/C: 116 % of control
[9]
  T/C: 108 % of control
